Data on 45 compounds can be found in patent publication US12428415B2, “Matriptase 2 inhibitors and uses thereof” (Disc Medicine, Inc., priority 2018, dated 2025).

The first assay concerns the target T1, Human Recombinant Matriptase 2 (Homo sapiens, UniProt Q8IU80).
T1 construct: purchased Enzo Life Sciences (an in-house preparation was also used) ALX-201-752-1
T1 sequence (Q8IU80 1-811): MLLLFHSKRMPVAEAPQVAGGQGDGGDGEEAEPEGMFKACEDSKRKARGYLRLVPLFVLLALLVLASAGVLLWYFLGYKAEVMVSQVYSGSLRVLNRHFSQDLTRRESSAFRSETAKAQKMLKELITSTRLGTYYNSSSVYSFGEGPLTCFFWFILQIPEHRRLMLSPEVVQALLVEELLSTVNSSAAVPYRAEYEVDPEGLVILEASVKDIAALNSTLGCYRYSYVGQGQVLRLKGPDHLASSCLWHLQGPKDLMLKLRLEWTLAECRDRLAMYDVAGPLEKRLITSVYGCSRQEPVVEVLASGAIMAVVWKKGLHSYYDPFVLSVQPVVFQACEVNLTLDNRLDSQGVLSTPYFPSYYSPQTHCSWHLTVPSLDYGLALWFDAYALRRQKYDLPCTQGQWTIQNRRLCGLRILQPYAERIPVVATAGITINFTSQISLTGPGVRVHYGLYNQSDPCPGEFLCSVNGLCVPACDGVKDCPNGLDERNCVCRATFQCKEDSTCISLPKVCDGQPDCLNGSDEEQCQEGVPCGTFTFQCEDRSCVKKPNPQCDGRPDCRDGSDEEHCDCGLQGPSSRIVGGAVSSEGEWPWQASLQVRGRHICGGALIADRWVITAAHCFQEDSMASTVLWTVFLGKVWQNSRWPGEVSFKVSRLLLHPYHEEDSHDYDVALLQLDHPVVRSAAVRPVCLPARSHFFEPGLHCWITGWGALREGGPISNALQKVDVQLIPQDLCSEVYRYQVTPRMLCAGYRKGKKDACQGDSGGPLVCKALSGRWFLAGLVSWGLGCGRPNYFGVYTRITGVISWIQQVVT
In words: Matriptase 2 fluorescence based inhibition assay, Method A (100 mM TRIS pH 9, 1 mg/mL BSA). The format is biochemical. As to conditions: 1 uM compound; Assay Used = A; read-out: Mar-2 % inhibition at 1 uM. A digest of the protocol:
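At 25° C in 100 mM TRIS pH 9 with 1 mg/mL BSA and 1% DMSO, compounds were preincubated 30 min with 7 nM commercial or 15 nM in-house protein before adding 100 μM Boc-Gln-Ala-Arg-7-amido-4-methyl coumarin. Fluorescence at 360/480 nm after 60 min; single points at 1 and 10 μM, IC50 by variable-slope nonlinear regression.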
Broadly, the inhibition is the percentage by which the read-out fell short of the control. For `N/C(=N/O)c1ccc2cc(C(=O)N[C@H]3CC[C@H](N)CC3)n(Cc3cccc4ccccc34)c2c1` [Compound I-400], the inhibition at 1 µM was in the range of 25 to 50%.

The same assay, now with this note: 1 uM; Assay Used A; read-out: Mar-2 % inhibition at 1 uM.
`Cc1ccc(NC(=O)c2cc3ccc(C(=N)N)cc3n2Cc2ccc(C(N)=O)cc2)cc1O` [Compound I-71]: the inhibition at 1 µM lay within 0 to 25%.

Take `N=C(N)c1ccc2cc(C(=O)Nc3ccc(Br)cc3F)n(Cc3ccc(C(N)=O)cc3)c2c1` [Compound I-145]: the inhibition at 1 µM lay in the range of 0 to 25%.

As for `N=C(N)c1ccc2cc(C(=O)Nc3cccc([N+](=O)[O-])c3)n(Cc3ccc(C(N)=O)cc3)c2c1` [Compound I-131], the inhibition at 1 µM lay in the range of 0 to 25%.

`N=C(N)c1ccc2cc(C(=O)Nc3cccc(-n4ccccc4=O)c3)n(Cc3ccc(C(N)=O)cc3)c2c1` [Compound I-153]: the inhibition at 1 µM lay in the range of 25 to 50%.

As to `N=C(N)c1ccc2cc(C(=O)Nc3ccc(F)c(Br)c3)n(Cc3ccc(C(N)=O)cc3)c2c1` [Compound I-111], the inhibition at 1 µM is 0 to 25%.

Consider `N=C(N)c1ccc2cc(C(=O)Nc3cc(F)c(F)c(Br)c3)n(Cc3ccc(C(N)=O)cc3)c2c1` [Compound I-130], for which the inhibition at 1 µM is 0 to 25%.

Consider `N=C(N)c1ccc2cc(C(=O)Nc3ccc(N4CC[C@H](F)C4)cc3)n(Cc3ccc(C(N)=O)cc3)c2c1` [Compound I-105], for which the inhibition at 1 µM lay within 25 to 50%.

Regarding `N=C(N)c1ccc2cc(C(=O)Nc3cccc(C(F)(F)F)c3)n(CCS(=O)(=O)c3ccccc3)c2c1` [Compound I-40, 6-Carbamimidoyl-1-(2-(phenylsulfonyl)ethyl)-N-(3-(trifluoromethyl)phenyl)-1H-indole-2-carboxamide], the inhibition at 1 µM lay within 0 to 25%.

As for `COc1cccc(NC(=O)c2cc3ccc(C(=N)N)cc3n2Cc2ccc(C(N)=O)cc2)c1` [Compound I-67], the inhibition at 1 µM was in the range of 0 to 25%.

As to `CC(C)(C)c1ccc(Cn2c(C(=O)NC3CCC(N)CC3)cc3ccc(C(=N)N)cc32)cc1` (stereo not drawn) [Compound I-17], the inhibition at 1 µM was in the range of 50 to 75%.

Take `C[C@H](NC(=O)c1cc2ccc(C(=N)N)cc2n1Cc1ccc(C(N)=O)cc1)c1ccc(F)c(F)c1` [Compound I-94]: the inhibition at 1 µM was 0 to 25%.

`N=C(N)c1ccc2cc(C(=O)Nc3cccc(-c4ccccn4)c3)n(Cc3ccc(C(N)=O)cc3)c2c1` [Compound I-134]: the inhibition at 1 µM is 0 to 25%.

As to `N=C(N)c1ccc2cc(C(=O)NC3CCNCC3)n(Cc3ccc(C(F)(F)F)cc3)c2c1` [Compound I-5], the inhibition at 1 µM was 25 to 50%.

Consider `N=C(N)c1ccc2cc(C(=O)Nc3cccc(-c4cnco4)c3)n(Cc3ccc(C(N)=O)cc3)c2c1` [Compound I-163], for which the inhibition at 1 µM was in the range of 0 to 25%.

Take `N=C(NC(=O)Oc1ccccc1)c1ccc2cc(C(=O)Nc3cccc(N4CCCC4)c3)n(Cc3ccc(C(N)=O)cc3)c2c1` [Compound I-148]: the inhibition at 1 µM lay in the range of 0 to 25%.

On to `N=C(N)c1ccc2cc(C(=O)Nc3ccc(Cl)cc3)n(Cc3ccc(C(N)=O)cc3)c2c1` [Compound I-84], for which the inhibition at 1 µM fell in the range of 0 to 25%.

Regarding `C[C@H](NC(=O)c1cc2ccc(C(=N)N)cc2n1Cc1ccc(C(N)=O)cc1)c1ccccc1` [Compound I-72], the inhibition at 1 µM fell in the range of 0 to 25%.

As for `N=C(N)c1ccc2cc(C(=O)Nc3ccc(N)nc3)n(Cc3ccc(C(F)(F)F)cc3)c2c1` [Compound I-1, N-(6-aminopyridin-3-yl)-6-carbamimidoyl-1-(4-(trifluoromethyl)benzyl)-1H-indole-2-carboxamide], the inhibition at 1 µM lay in the range of 0 to 25%.

With `N=C(N)c1ccc2cc(C(=O)NCc3ccccc3)n(Cc3ccc(C(N)=O)cc3)c2c1` [Compound I-77], the inhibition at 1 µM is 0 to 25%.

Consider `N=C(N)c1ccc2cc(C(=O)Nc3cc(N4CCCC4)ccn3)n(Cc3ccc(C(N)=O)cc3)c2c1` [Compound I-179], for which the inhibition at 1 µM was in the range of 0 to 25%.

On to `N=C(N)c1ccc2cc(C(=O)NCCC3CCCCC3)n(Cc3ccc(C(N)=O)cc3)c2c1` [Compound I-195], for which the inhibition at 1 µM fell in the range of 0 to 25%.

Take `N=C(N)c1ccc2cc(C(=O)NC3CCN(CCN)CC3)n(CCc3ccccc3)c2c1` [Compound I-28, N-(1-(2-Aminoethyl)piperidin-4-yl)-6-carbamimidoyl-1-phenethyl-1H-indole-2-carboxamide]: the inhibition at 1 µM is 25 to 50%.

Still in this assay, the particulars now being: at 1 uM; Assay Used = A; read-out: Mar-2 % inhibition at 1 uM.
As to `CC(C)(C)c1ccc(Cn2c(C(=O)N3CC[C@H](F)C3)cc3ccc(C(=N)N)cc32)cc1` [Compound I-298], the inhibition at 1 µM was in the range of 25 to 50%.

As for `N=C(N)c1ccc2cc(C(=O)N[C@H]3CC[C@H](N)CC3)n(Cc3ccc(Oc4ccc(Cl)cc4)cc3)c2c1` [Compound I-247], the inhibition at 1 µM was 50 to 75%.

As to `N=C(N)c1ccc2cc(C(=O)NC34CC5CC(CC(O)(C5)C3)C4)n(Cc3ccc(C(N)=O)cc3)c2c1` [Compound I-197], the inhibition at 1 µM is 0 to 25%.

On to `N=C(N)c1ccc2cc(C(=O)N3CC[C@H](F)C3)n(Cc3ccc(C(N)=O)cc3)c2c1` [Compound I-330], for which the inhibition at 1 µM was in the range of 0 to 25%.

For the compound `N=C(N)c1ccc2c(O)c(C(=O)NCC3CCCCC3)n(Cc3ccc(C(N)=O)cc3)c2c1` [Compound I-212, 6-Carbamimidoyl-1-(4-carbamoylbenzyl)-N-(cyclohexylmethyl)-3-hydroxy-1H-indole-2-carboxamide], the inhibition at 1 µM was 0 to 25%.

In the case of `CC(C)c1ccc(Cn2c(C(=O)N3CCC(F)CC3)cc3ccc(C(=N)N)cc32)cc1` [Compound I-295], the inhibition at 1 µM lay within 0 to 25%.

For `N=C(N)c1ccc2cc(C(=O)N3CCC(F)(F)CC3)n(CCS(=O)(=O)c3ccccc3)c2c1` [Compound I-344], the inhibition at 1 µM lay within 0 to 25%.

Consider `N=C(N)c1ccc2cc(C(=O)N3CCC(CCOCCO)CC3)n(Cc3ccc(C(F)(F)F)cc3)c2c1` [Compound I-287], for which the inhibition at 1 µM lay within 0 to 25%.

Take `N=C(N)c1ccc2cc(C(=O)N[C@H]3CC[C@H](N)CC3)n(Cc3cccc(NC(=O)C4CNC4)c3)c2c1` [Compound I-258, N-((1r,4r)-4-Aminocyclohexyl)-1-(3-(azetidine-3-carboxamido)benzyl)-6-carbamimidoyl-1H-indole-2-carboxamide]: the inhibition at 1 µM fell in the range of 50 to 75%.

`N=C(N)c1ccc2c(Cl)c(C(=O)N3CCC(F)CC3)n(Cc3ccc(-c4ccccc4)cc3)c2c1` [Compound I-353, 1-([1,1′-Biphenyl]-4-ylmethyl)-3-chloro-2-(4-fluoropiperidine-1-carbonyl)-1H-indole-6-carboximidamide]: the inhibition at 1 µM lay within 0 to 25%.

For the compound `N=C(N)c1ccc2cc(C(=O)N3CCC(C(F)(F)F)CC3)n(Cc3ccc(C(N)=O)cc3)c2c1` [Compound I-329], the inhibition at 1 µM was in the range of 0 to 25%.

With `N=C(N)c1ccc2cc(C(=O)N3CCC(F)(F)CC3)n(Cc3ccc(-c4ccccc4)cc3)c2c1` [Compound I-306], the inhibition at 1 µM is 0 to 25%.

In the case of `N=C(N)c1ccc2cc(C(=O)N3CCC(CCN)CC3)n(CCC(N)=O)c2c1` [Compound I-276], the inhibition at 1 µM is 25 to 50%.

Regarding `N=C(N)c1ccc2cc(C(=O)N[C@H]3CCNC3)n(Cc3ccc(C(N)=O)cc3)c2c1` [Compound I-205], the inhibition at 1 µM was 25 to 50%.

On to `N=C(N)c1ccc2cc(C(=O)N3CCC(F)(F)C3)n(Cc3ccc(C(=O)NC4CC4)cc3)c2c1` [Compound I-387], for which the inhibition at 1 µM is 0 to 25%.

For the compound `N=C(N)c1ccc2cc(C(=O)N3CCC(F)CC3)n(Cc3cccc(NC(=O)CCN)c3)c2c1` [Compound I-366], the inhibition at 1 µM lay within 0 to 25%.

For `CCNC(=O)c1ccc(Cn2c(C(=O)N3CCC(F)(F)C3)cc3ccc(C(=N)N)cc32)cc1` [Compound I-385, 4-((6-Carbamimidoyl-2-(3,3-difluoropyrrolidine-1-carbonyl)-1H-indol-1-yl)methyl)-N-ethylbenzamide], the inhibition at 1 µM was 0 to 25%.

Consider `N=C(N)c1ccc2cc(C(=O)NCC3CCCCC3)n(Cc3ccc(C(N)=O)c(Cl)c3)c2c1` [Compound I-229, 6-Carbamimidoyl-1-(3-Chloro-4-carbamoyl-benzyl)-N-(cyclohexylmethyl)-1H-indole-2-carboxamide], for which the inhibition at 1 µM is 0 to 25%.

Regarding `CC(C)CCn1c(C(=O)N2CCC(F)CC2)cc2ccc(C(=N)N)cc21` [Compound I-270, 2-(4-Fluoropiperidine-1-carbonyl)-1-isopentyl-1H-indole-6-carboximidamide], the inhibition at 1 µM lay within 0 to 25%.

Take `N=C(N)c1ccc2cc(C(=O)N3CCC(F)CC3)n(Cc3ccc(C(F)(F)F)cc3)c2c1` [Compound I-282]: the inhibition at 1 µM is 0 to 25%.

On to `N=C(N)c1ccc2cc(C(=O)N3CCC(F)(F)C3)n(Cc3cccc(NC(=O)CCN)c3)c2c1` [Compound I-369], for which the inhibition at 1 µM lay in the range of 0 to 25%.

Turning to `N=C(N)c1ccc2cc(C(=O)N3CCC(F)(F)CC3)n(Cc3ccc(OC(F)(F)F)cc3)c2c1` [Compound I-290], the inhibition at 1 µM was 0 to 25%.
